Consider seven molecules from PubChem BioAssay (NCI).

What all share (assay): inhibition of tumour cell growth, NCI panel, 48 h
Test [1] concerns A498 renal.
The subject of test [2] is NCI-H226 lung.
Test [3] deals with SF-539 CNS.
Test [4] has as its system ACHN renal.
For test [5], the system named is OVCAR-3 ovarian.
Test [6] relates to TK-10 renal.
The subject of test [7] is MDA-MB-435.
For test [8], the system named is NCI-H23 lung.
For test [9], the system named is SK-MEL-28 melanoma.
For test [10], the system named is A549 NSCLC.

Structures are written as SMILES.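 1) Cells in 96-well plates. 2) Compound, 48 h, 5 concentrations. 3) Linear interpolation between surrounding doses. 4) Unreached endpoint = highest concentration. GI50 marks 50% less growth. TGI: total growth inhibition.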

As for `CC(=O)CCc1ccc(OC2OC(COC(=O)c3cc(O)c(O)c(O)c3)C(O)C(O)C2OC(=O)/C=C/c2ccccc2)cc1` (stereo not given), the GI50 is 23.2 µM in test [1]; 16.9 µM in [2]; 26.4 µM in test [3]; 25.6 µM in test [4]; 23.8 µM in test [5]; 23.8 µM in [6]. Further, the GI50 in test [7] is 16.8 µM; in [8] it was 17.5 µM; in [9] it was 19.4 µM; in test [10], 25.8 µM. Besides, the TGI is 48 µM in [1]; 37 µM in test [2]; 44.8 µM in [3]; 75.4 µM in [4]; 72.4 µM in test [5]; 61.3 µM in [6]. For the same molecule, the TGI in test [7] worked out at 37.1 µM; in test [8], 38.6 µM; in test [9], 39.9 µM; in [10] it was 59.7 µM.

For the molecule `CN(Cc1ccc(Cl)cc1)c1ccc(CO)c(Cl)c1`, the GI50 in test [1] is 0.0464 µM; in test [2], 0.115 µM; in [3], 14 µM; in test [4], 5.83 µM; in [5] it was 3.74 µM; in [6], 0.268 µM. The GI50 is 13.5 µM in [7], 5.98 µM in [8], 12.3 µM in test [9] and 3.9 µM in test [10]. Besides, the TGI in [1] worked out at 0.179 µM; in test [2], 0.285 µM; in [3] it was 28.8 µM; in test [4] it was 23.6 µM; in test [5], 13.2 µM; in test [6], 1.68 µM. Besides, the TGI was found to be 27.9 µM in [7], 23 µM in test [8], 25.1 µM in test [9] and 17.8 µM in [10].

Take `Cc1cc2cc3cc(C)c(N(C)C)cc3[n+](C)c2cc1N(C)C`: the GI50 was 3.18 µM in test [1]; 5.68 µM in test [2]; 3.05 µM in test [3]; 3.69 µM in [4]; 3.13 µM in [5]; 5.19 µM in [6]. For the same molecule, the GI50 in test [7] is 3.1 µM; in [8], 2.77 µM; in [9], 2.64 µM; in [10], 3.1 µM. Further, the TGI in test [1] is 25.5 µM; in test [2], 48 µM; in [3], 12.1 µM; in [4] it was above 100 µM; in test [5] it was 14 µM; in test [6], 58.4 µM. In addition, the TGI in test [7] was 14.9 µM; in [8], 31.2 µM; in [9], 8.53 µM; in test [10], above 100 µM.

In the case of `O=C1CC(c2cccc(O)c2)C2(C(=O)NC(=S)NC2=O)C(c2cccc(O)c2)C1` (stereo not given), the GI50 in [1], in [2], in [3], in [4], in test [5] and in test [6] was above 100 µM throughout. Besides, the GI50 in test [7], in test [8], in test [9] and in test [10] was above 100 µM in each case. The TGI in test [1], in test [2], in test [3], in test [4], in test [5] and in test [6] was above 100 µM in each case. For the same molecule, the TGI in test [7], in [8], in test [9] and in test [10] was above 100 µM in each case.

With `O=c1cc(-c2ccccc2)oc2cc(O)c(O)c(O)c12`, the GI50 in test [1] is 6.94 µM; in [2], 19.3 µM; in test [3], 8.4 µM; in test [4], 9.32 µM; in [5], 16 µM; in [6], 28 µM. Further, the GI50 is 10.2 µM in [7], 12.7 µM in test [8], 92.3 µM in test [9] and 36.2 µM in test [10]. Further, the TGI is above 100 µM in test [1]; 58 µM in [2]; 36.8 µM in test [3]; above 100 µM in test [4]; 41.7 µM in [5]; 81.2 µM in test [6]. The TGI in test [7] is 39.8 µM; in test [8], 39.7 µM; in test [9] it was above 100 µM; in test [10], above 100 µM.

Turning to `CC(C)[C@H]1CC[C@H]2[C@@H](CC[C@H]3[C@](C)(CN)CCC[C@]23C)C1`, the GI50 in [1] was 13.2 µM; in [2], 4.99 µM; in [3], 1.59 µM; in test [4] it was 2.42 µM; in test [5] it was 1.96 µM; in test [6], 2.19 µM. The GI50 was 2.13 µM in [7], 1.79 µM in test [8], 16.8 µM in test [9] and 2.18 µM in test [10]. Also, the TGI was 27 µM in [1]; 23.5 µM in test [2]; 2.95 µM in test [3]; 6.44 µM in [4]; 3.84 µM in test [5]; 7.9 µM in test [6]. The TGI worked out at 4.69 µM in [7], 3.39 µM in [8], 30.8 µM in test [9] and 4.23 µM in test [10].

For `Cc1ccc(NC(=O)Cc2ccc(/C=C/C(=O)c3ncc[nH]3)cc2)cc1`, the GI50 in [1] is 19.9 µM; in test [2] it was 9.59 µM; in [3] it was 4.77 µM; in test [4], 6.51 µM; in [5], 1.67 µM; in [6] it was 7.93 µM. For the same molecule, the GI50 was 5.68 µM in [7], 5.85 µM in test [8], 11.5 µM in test [9] and 9.14 µM in test [10]. The TGI in [1] is above 25 µM; in test [2], above 25 µM; in [3], 14 µM; in test [4], 21.4 µM; in [5] it was above 25 µM; in [6], above 25 µM. The TGI in [7], in [8], in test [9] and in [10] was above 25 µM in each case.
